In patent publication US5932208A, “Compositions and methods for the use of such compositions in human therapeutics, characterized by the association of a muramyl peptide with a cytokine” (Vacsyn S.A., priority 1993, dated 1999):
Values joined by “and” are separate entries in the source; they are usually repeats but may differ in a detail not shown here. Identical values can stand only once.

Assays:
neutrophils = experiment: Neutrophil counts in healthy volunteers after single subcutaneous administration; assay type: in vivo, human; conditions: α-IFN 0, muramyl peptide 100 μg/Kg alone; highest value during the 24 hours after administration
Description: (§1) They receive subcutaneously the mixtures described in the following table I of murabutide (MUB) or murametide (MUM) with α-interferon 2a (α-IFN).
The subjects are monitored during the three days following the administration of the IFN and/or the muramyl peptides, and all of the tests and investigations necessary to carry out a phase I test are effected.
Haematological analysis with white corpuscle counts at the time of injection and then 6 hours, 12 hours, 24 hours, 36 hours, 60 hours and 72 hours after injection.
The leucocyte counts are carried out in a COULTER COUNTER automatic cell counter.
Neutrophils are the cells which are the most affected by leucopenic treatments. It is the reduction in the amount of neutrophils which is responsible for the reduction in the non-specific immune defences in subjects subjected to radiotherapy or to cytotoxic and/or myelotoxic chemotherapy. To make reading easier, only the neutrophil counts made at the time when their variation is at its greatest have been given.

neopterine = experiment: Neopterine test (RIA) on sera of healthy volunteers; assay type: in vivo, human; conditions: for Influence on the amount of neopterine, in words: dose of 100 μg/kg alone; for Neopterine in serum: muramyl peptide 100 μg/Kg alone (α-IFN 0)
Description: as §1
(§2) Blood samples are taken before injection and 6 hours, 24 hours and 48 hours after injection, in order to collect the serum necessary to carry out the tests for neopterine, interleukin 1, 6 and 8, G-CSF, IL-1 RA and α-TNF.
(§3) The blood samples for the serum tests are centrifuged at 4° C. and 3000 rpm for 10' immediately after they are taken. The sera are stored at -20° C. The leucocyte counts and the neopterine and cytokine tests are carried out using commercial kits.
The tests are carried out on sera taken at 0, 24 and 48 hours. An RIA (Radio Immuno Assay) kit (Behring Diagnostic, France) is used. The results are expressed in […], and the normal values vary from […].

G-CSF = G-CSF test on sera of healthy volunteers; assay type: in vivo, human; conditions: α-IFN 0, muramyl peptide 100 μg/Kg alone; for Amounts of G-CSF in serum after 0 hour: before administration
Description: as §1, §2, §3
These tests were carried out using the British Biotechnology Products Ltd. kit (see Table VI).

KHT sarcoma cells = experiment: KHT sarcoma model in C3H/HeN mice, IL-2 with murametide; assay type: in vivo
Description: A murine model has been developed in C3H/HeN mice. KHT sarcoma cells are administered by the venous route. After 4 days and 6 days they are treated with:
c) the association of the two immunomodulators;
d) a fourth group is not treated.

IL-6 [1] = experiment: In vitro incubation of blood of healthy volunteers: IL-6 secreted; assay type: cell-based, human
Description: (§4) Blood taken from healthy volunteers was incubated in vitro with different combinations associating murabutide and α-IFN. The murabutide was used at a dose of 20 μg/ml and the IFN was used at a dose of from 30 to 100 μ/ml. At different times in the course of incubation, blood samples are taken and the mononucleated cells are separated on a Ficoll gradient. The total RNA is extracted, purified and separated by electrophoresis. It is then analysed in accordance with the Schreck method in order to determine by a hybridisation technique what genes were induced by the treatment.
(§5) Studies similar to those described above were carried out in order to study the murabutide-GM-CSF association. These studies were carried out in vitro on the cells of healthy volunteers after incubation with immunomodulators alone or in association.
(§6) Specific cytokines were sought and measured in the supernatants (see Table XIII).

sTNFR2 = experiment: In vitro incubation of blood of healthy volunteers: sTNFR2 secreted; assay type: cell-based, human
Description: as §4, §5, §6

IL-1 RA = experiment: In vitro incubation of blood of healthy volunteers: IL-1 RA secreted; assay type: cell-based, human
Description: as §4, §5, §6

[2] = test system: IL-1 receptor antagonist (IL-1 RA); experiment: IL-1 receptor antagonist (IL-1 RA) test on sera of healthy volunteers; assay type: in vivo, human; conditions: α-IFN 0, muramyl peptide 100 μg/Kg alone; 6 hours after administration
Description: as §1, §2, §3

IL-6 [3] = experiment: IL-6 test (Elisa) on sera of healthy volunteers; assay type: in vivo, human; conditions: α-IFN 0, muramyl peptide 100 μg/Kg alone; 6 hours after administration
Description: as §1, §2, §3
The test is carried out using an Elisa test kit (British Biotechnology Products Ltd.) on sera taken at time 0 and after 6 hours. The figures express the pg/ml, the normal values are less than 6 pg.

[4] = test system: Soluble TNF receptor (STNF-R); experiment: Soluble TNF receptor (STNF-R) ELISA test in serum; assay type: in vivo, human; conditions: α-IFN 6 × 10^6 units and/or murabutide 100 μg/Kg
Description: These tests are carried out by an ELISA test in the serum of subjects having 6M units of IFN. At that dose, there is already an appreciable increase in the amount of STNF-R but the addition of murabutide permits a significant increase in the secretion of that mediator.

circulating neutrophils = experiment: Neutrophil count after repeated administration to humans (days 1, 3 and 5); assay type: in vivo, human; conditions: α-IFN 2a 1 MU and/or murabutide 7 mg on days 1, 3 and 5
Description: Phase I/IIa tests were carried out on 3 groups of 6 healthy volunteers who received the following treatments on days 1, 3 and 5:
a) α-IFN 2a (1 MU) Roferon;
c) the association of the two immunostimulants.
By studying their influence on the number of circulating neutrophils.

Swiss mice = experiment: Endotoxic shock (D-galactosamine + LPS) model in Swiss mice; assay type: in vivo; conditions: for Average % mortality / Number of dead mice per total tested, Exp. 1 / Number of dead mice per total tested, Exp. 2 / Number of dead mice per total tested, Exp. 3: intravenously, mortality after 48 hours
Description: The administration of D-galactosamine with lipopolysaccharide (LPS) to Swiss mice induces endotoxic shock with at least 70% mortality in 24-48 hours. The prophylactic or therapeutic effect of murabutide was studied in this model in order to evaluate its anti-inflammatory activity when it is administered alone or in combination with α/β-IFN. […] On the contrary, pretreatment with a combination of murabutide and α/β-interferon induces significant protection with an incidence of mortality of only 33% (against 78% in the controls).
^1) The Swiss mice were tested intraperitoneally at time 0 with 18 mg
of Dgalactosamine + 50 ng of LPS. The mortality was measured after 48
^2) The compounds are administered intravenously either 3 hours befor

[5] = GM-CSF 1 ng/ml, without or with Murabutide 20 μg/ml
[6] = GM-CSF 5 ng/ml, without or with Murabutide 20 μg/ml
[7] = +1 hr, Murabutide 15 mg/kg and/or α/β-IFN 1.25 × 10^6 IU/kg (alone: 11.25 × 10^6 IU/kg [sic])
[8] = Murabutide 15 mg/kg alone, -3 hrs

In the case of COC(=O)[C@@H](CCC(N)=O)NC(=O)[C@H](C)NC(=O)C(C)O[C@H]1[C@H](O)[C@@H](CO)O[C@H](O)[C@@H]1NC(C)=O (stereo partly shown) [Murametide, murametide], the “Neutrophil count % base line” value (neutrophils) is reported as 279 ± 67 % base line, the “Influence on the amount of neopterine, in words” value (neopterine) is reported as “does not influence the amount significantly” and the Neopterine in serum (neopterine; T 0 hours) is reported as 5.43 ± 0.66 nM. For the same molecule, the Neopterine in serum (neopterine; T 24 hours) was 7.14 ± 1 nM, the Neopterine in serum (neopterine; T 48 hours) was 7.39 ± 1.37 nM and the “Amounts of G-CSF in serum after 6 hours” value (G-CSF) was 73 ± 115. The “Amounts of G-CSF in serum after 0 hour” value (G-CSF) was 61 ± 103, the Antitumour activity (KHT sarcoma cells; mice having pulmonary sarcoma metastases, preliminary data) was “no antitumour activity” and the “Toxicity of IL-2 in mice having tumours” value (KHT sarcoma cells; mice having tumours) was “reduces the toxicity of IL-2”.

In the case of GM-CSF: cytokine GM-CSF, the “Average amounts of cytokines secreted: IL-6” value (from here on “Average amounts … IL-6”) (IL-6 [1]; [5]) is reported as 2.0 ± 1.5 pg/mL, the “Average amounts … IL-6” value (IL-6 [1]; [6]) is reported as 2.3 ± 2.1 pg/mL and the “Average amounts of cytokines secreted: sTNFR2” value (“Average amounts … sTNFR2” for short) (sTNFR2; [5]) is reported as 1027 ± 624 pg/mL. The “Average amounts … sTNFR2” value (sTNFR2; [6]) was 1359 ± 350 pg/mL, the “Average amounts of cytokines secreted: IL-1 RA” value (shortened to “Average amounts … IL-1 RA”) (IL-1 RA; [5]) was 4.0 ± 1.4 ng/mL and the “Average amounts … IL-1 RA” value (IL-1 RA; [6]) was 8.7 ± 10.0 ng/mL.

In the case of CCCCOC(=O)[C@@H](CCC(N)=O)NC(=O)[C@H](C)NC(=O)[C@@H](C)O[C@H]1[C@H](O)[C@@H](CO)OC(O)[C@@H]1NC(C)=O (stereo partly shown) [Murabutide, murabutide], the “Neutrophil count % base line” value (neutrophils) is reported as 268 ± 43 % base line, the “Influence on the amount of neopterine, in words” value (neopterine) is reported as “does not influence the amount significantly” and the Neopterine in serum (neopterine; T 0 hours) is reported as 6.37 ± 0.99 nM. The Neopterine in serum (neopterine; T 24 hours) was 7.33 ± 0.75 nM, the Neopterine in serum (neopterine; T 48 hours) was 8.22 ± 1.39 nM and the “Amounts of IL-1 RA in the serum” value [2] was 496 ± 326 pg/mL. The “Amounts of IL-6 in the serum” value (IL-6 [3]) was 2.80 ± 1.60 pg/mL and 4.30 ± 1.80 pg/mL, the “Amounts of G-CSF in serum after 6 hours” value (G-CSF) was 18 ± 9 and the “Amounts of G-CSF in serum after 0 hour” value (G-CSF) was < 10. For the same molecule, the “Amount of STNF-R in the serum, 0 hour” value [4] was 195 ± 28 pg/mL, the “Amount of STNF-R in the serum, 6 hours” value [4] was 616 ± 65 pg/mL and the STNF-R net increase ([4]; 6 hours versus 0 hour) was 31 ± 37 pg/mL. For the same molecule, the “Neutrophil count (% of the base line) after 3 hours” value (circulating neutrophils; day of treatment 1) was 139 ± 26 % of the base line, the “Neutrophil count (% of the base line) after 6 hours” value (circulating neutrophils; day of treatment 1) was 256 ± 51 % of the base line and the “Neutrophil count (% of the base line) after 12 hours” value (circulating neutrophils; day of treatment 1) was 227 ± 46 % of the base line. The “Neutrophil count (% of the base line) after 3 hours” value (circulating neutrophils; day of treatment 3) was 133 ± 24 % of the base line, the “Neutrophil count (% of the base line) after 6 hours” value (circulating neutrophils; day of treatment 3) was 182 ± 27 % of the base line and the “Neutrophil count (% of the base line) after 12 hours” value (circulating neutrophils; day of treatment 3) was 176 ± 59 % of the base line. For the same molecule, the “Neutrophil count (% of the base line) after 3 hours” value (circulating neutrophils; day of treatment 5) was 107 ± 19 % of the base line, the “Neutrophil count (% of the base line) after 6 hours” value (circulating neutrophils; day of treatment 5) was 150 ± 28 % of the base line and the “Neutrophil count (% of the base line) after 12 hours” value (circulating neutrophils; day of treatment 5) was 153 ± 23 % of the base line. The “Average amounts … IL-6” value (IL-6 [1]; Murabutide 20 μg/ml alone) was 15.5 ± 11.3 pg/mL, the “Average amounts … sTNFR2” value (sTNFR2; Murabutide 20 μg/ml alone) was 1171 ± 478 pg/mL and the “Average amounts … IL-1 RA” value (IL-1 RA; Murabutide 20 μg/ml alone) was 7.8 ± 6.0 ng/mL. For the same molecule, the Average % mortality (Swiss mice; [7]) was 31%, the “Number of dead mice per total tested, Exp. 1” value (Swiss mice; [7]) was 2/9 and the “Number of dead mice per total tested, Exp. 2” value (Swiss mice; [7]) was 3/8. The “Number of dead mice per total tested, Exp. 3” value (Swiss mice; [7]) was 3/9, the Average % mortality (Swiss mice; [8]) was 74% and the “Number of dead mice per total tested, Exp. 1” value (Swiss mice; [8]) was 7/9. For the same molecule, the “Number of dead mice per total tested, Exp. 2” value (Swiss mice; [8]) was 7/8, the “Number of dead mice per total tested, Exp. 3” value (Swiss mice; [8]) was 6/10 and the “Curative effect, in words” value (Swiss mice; administration 1 hour after the induction of endotoxic shock) was “significant curative effect”. The “Prophylactic effect against the galactosamine/LPS mixture, in words” value (Swiss mice; pretreatment of the mice) was “does not give rise to a prophylactic effect”.
